The nature of the data set: Assay (V) PK - determination of T½ in mini-pig. The class given is in vivo. To be noted: minipig, sc; terminal plasma half-life, subcutaneous, approx 2 nmol/kg, male Göttingen mini-pigs. The essentials: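 Male Göttingen mini-pigs (5–12 months, 7–35 kg) got a single s.c. neck injection of approx 2 nmol/kg; plasma sampled via central venous catheter predose to 240 h (some to 288 h). Amylin measured by sandwich ELISA; T½ = ln 2/λz from non-compartmental analysis of individual profiles.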

*1 amine or outer side, *2 acyl side, *3 side chain or, on linkers, in order; H or OH if unused. Where a SMILES comes first, the peptide text is derived from it. Bridges are numbered along the chain shown (N, C = ends). The star is where a group is joined. C20 diacid = O=C(O)CCCCCCCCCCCCCCCCCCC(=O)*; γGlu = O=C(O)[C@H](CCC(=O)[*:2])N[*:1]

Turning to `CC[C@H](C)[C@H](NC(=O)[C@@H]1CCCN1C(=O)CNC(=O)[C@H](Cc1ccccc1)NC(=O)[C@H](CC(N)=O)NC(=O)[C@H](CC(N)=O)NC(=O)[C@H](CO)NC(=O)[C@H](CO)NC(=O)[C@H](Cc1c[nH]cn1)NC(=O)[C@H](Cc1c[nH]cn1)NC(=O)[C@H](CC(C)C)NC(=O)[C@H](Cc1ccccc1)NC(=O)[C@H](CC(N)=O)NC(=O)[C@H](C)NC(=O)[C@H](CC(C)C)NC(=O)[C@H](CCCNC(=N)N)NC(=O)[C@H](CCC(N)=O)NC(=O)[C@@H](NC(=O)[C@H](C)NC(=O)[C@@H]1CSSC[C@H](NC(=O)[C@H](Cc2c[nH]cn2)NC(=O)[C@H](Cc2c[nH]cn2)NC(=O)[C@H](Cc2c[nH]cn2)NC(=O)CC[C@H](NC(=O)CCCCCCCCCCCCCCCCCCC(=O)O)C(=O)O)C(=O)N[C@@H](CC(N)=O)C(=O)N[C@@H]([C@@H](C)O)C(=O)N[C@@H](C)C(=O)N[C@@H]([C@@H](C)O)C(=O)N1)[C@@H](C)O)C(=O)N[C@@H](CC(C)C)C(=O)N1CCC[C@H]1C(=O)N1CCC[C@H]1C(=O)N[C@H](C(=O)N[C@@H](CC(N)=O)C(=O)N[C@H](C(=O)NCC(=O)N[C@@H](CO)C(=O)N[C@@H](CC(N)=O)C(=O)N[C@H](C(=O)N[C@@H](Cc1ccc(O)cc1)C(N)=O)[C@@H](C)O)C(C)C)[C@@H](C)O` [Example 39, N-alpha-[(S)-4-Carboxy-4-(19-carboxynonadecanoylamino)butyryl]-His-His-[His1,His17]-pramlintide] ({C20 diacid-γGlu}-HHHCNTATCATQRLANFLHHSSNNFGPILPPTNVGSNTY-NH2; disulfide 4-9), the half-life (as a rule, the time needed for the level to fall by half in the phase considered) was 60 h.
